Data published in PubChem BioAssay (NCI).
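Results reflect a 48-hour exposure of cells in 96-well plates to compound at five concentrations. GI50: concentration for 50% inhibition of growth. TGI: total growth inhibition.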

Assays:
Test in all cases: growth of human tumour cells (NCI), 48 h
[1] = system: 786-0 renal
[2] = system: A498 renal
[3] = system: A549 NSCLC
[4] = system: ACHN renal
[5] = system: BT-549 breast
[6] = system: CAKI-1 renal
[7] = system: CCRF-CEM leukemia
[8] = system: COLO 205 colon
[9] = system: DU-145 prostate
[10] = system: EKVX NSCLC
[11] = system: HCC-2998 colon
[12] = system: HCT-116 colon
[13] = system: HCT-15 colon
[14] = system: HL-60(TB) leukemia
[15] = system: HOP-62 NSCLC
[16] = system: HOP-92 NSCLC
[17] = system: HS 578T breast
[18] = system: HT29 colon
[19] = system: IGROV1 ovarian
[20] = system: K-562 leukemia
[21] = system: KM12 colon
[22] = system: LOX IMVI melanoma
[23] = system: M14 melanoma
[24] = system: MALME-3M melanoma
[25] = system: MCF7 breast
[26] = system: MDA-MB-231 breast
[27] = system: MDA-MB-435
[28] = system: MOLT-4 leukemia
[29] = system: NCI-H226 lung
[30] = system: NCI-H23 lung
[31] = system: NCI-H460 lung
[32] = system: NCI-H522 lung
[33] = system: NCI/ADR-RES ovarian
[34] = system: OVCAR-3 ovarian
[35] = system: OVCAR-4 ovarian
[36] = system: OVCAR-5 ovarian
[37] = system: OVCAR-8 ovarian
[38] = system: PC-3 prostate
[39] = system: RPMI-8226 leukemia
[40] = system: RXF 393 renal
[41] = system: SF-268 CNS
[42] = system: SF-295 CNS
[43] = system: SF-539 CNS
[44] = system: SK-MEL-2 melanoma
[45] = system: SK-MEL-28 melanoma
[46] = system: SK-MEL-5 melanoma
[47] = system: SK-OV-3 ovarian
[48] = system: SN12C renal
[49] = system: SNB-19 CNS
[50] = system: SNB-75 CNS
[51] = system: SR leukemia
[52] = system: SW-620 colon
[53] = system: TK-10 renal
[54] = system: U251 CNS
[55] = system: UACC-257 melanoma
[56] = system: UACC-62 melanoma
[57] = system: UO-31 renal

## Cn1cc(-c2csc(-c3cn(C)c4ncccc34)n2)c2ccccc21
[1]
  GI50: 588 nM
  TGI: 18100 nM
[2]
  GI50: 496 nM
  TGI: 8650 nM
[3]
  GI50: 634 nM
  TGI: 23800 nM
[4]
  GI50: 899 nM
  TGI: 16600 nM
[5]
  GI50: 409 nM
  TGI: 26200 nM
[6]
  GI50: 373 nM
  TGI: 32500 nM
[7]
  GI50: 368 nM
  TGI: > 61600 nM
[8]
  GI50: 229 nM
  TGI: 1050 nM
[9]
  GI50: 436 nM
  TGI: 23500 nM
[10]
  GI50: 906 nM
  TGI: > 100000 nM
[11]
  GI50: 1150 nM
  TGI: > 100000 nM
[12]
  GI50: 354 nM
  TGI: 19000 nM
[13]
  GI50: 230 nM
  TGI: > 100000 nM
[14]
  GI50: 283 nM
  TGI: 18800 nM
[15]
  GI50: 622 nM
  TGI: 19300 nM
[16]
  GI50: 346 nM
  TGI: 14100 nM
[17]
  GI50: 451 nM
  TGI: 18800 nM
[18]
  GI50: 276 nM
  TGI: 4160 nM
[19]
  GI50: 1280 nM
  TGI: 33600 nM
[20]
  GI50: 103 nM
  TGI: 16600 nM
[21]
  GI50: 242 nM
  TGI: > 76700 nM
[22]
  GI50: 652 nM
  TGI: > 100000 nM
[23]
  GI50: 256 nM
  TGI: > 41400 nM
[24]
  GI50: 647 nM
  TGI: 41000 nM
[25]
  GI50: 322 nM
  TGI: > 100000 nM
[26]
  GI50: 2820 nM
  TGI: 37800 nM
[27]
  GI50: 41.4 nM
  TGI: 186 nM
[28]
  GI50: 613 nM
  TGI: > 52200 nM
[29]
  GI50: 860 nM
  TGI: 26700 nM
[30]
  GI50: 752 nM
  TGI: 20600 nM
[31]
  GI50: 336 nM
  TGI: 13500 nM
[32]
  GI50: 88.9 nM
  TGI: 1160 nM
[33]
  GI50: 135 nM
  TGI: 3470 nM
[34]
  GI50: 143 nM
  TGI: 1300 nM
[35]
  GI50: 7100 nM
  TGI: 44000 nM
[36]
  GI50: 876 nM
  TGI: 23800 nM
[37]
  GI50: 666 nM
  TGI: 22700 nM
[38]
  GI50: 397 nM
  TGI: > 100000 nM
[39]
  GI50: 396 nM
  TGI: 25300 nM
[40]
  GI50: 299 nM
  TGI: 2960 nM
[41]
  GI50: 1120 nM
  TGI: 37400 nM
[42]
  GI50: 274 nM
  TGI: 12600 nM
[43]
  GI50: 158 nM
  TGI: 579 nM
[44]
  GI50: 405 nM
  TGI: 16800 nM
[45]
  GI50: 1230 nM
  TGI: > 100000 nM
[46]
  GI50: 286 nM
  TGI: 16200 nM
[47]
  GI50: 544 nM
  TGI: 15700 nM
[48]
  GI50: 3070 nM
  TGI: > 100000 nM
[49]
  GI50: 574 nM
  TGI: 27000 nM
[50]
  GI50: 191 nM
  TGI: 737 nM
[51]
  GI50: 96.1 nM
  TGI: > 43900 nM
[52]
  GI50: 260 nM
  TGI: > 100000 nM
[53]
  GI50: 1000 nM
  TGI: 19400 nM
[54]
  GI50: 404 nM
  TGI: 13300 nM
[55]
  GI50: 13000 nM
  TGI: > 100000 nM
[56]
  GI50: 325 nM
  TGI: 44300 nM
[57]
  GI50: 710 nM
  TGI: > 66400 nM
